These results are taken from patent publication US9890126B2 (priority 2012, dated 2018).

Read-outs that look alike come from different tables or passages of the source. Marks after values point to notes of the source that are not given here.

The target in one experiment is IspF (Burkholderia pseudomallei, UniProt Q3JRA0). Nature of the experiment: biochemical. Type of experiment: binding.
Experiment [1] relates to Burkholderia.
The subject of another experiment is Plasmodium falciparum. Nature of the experiment: Antimalarial initial tests, three strains of drug resistant malaria. The conditions noted are these: all three strains of drug resistant malaria.
The test system of a further experiment is B. pseudomallei. Type of experiment: cell-based, Burkholderia pseudomallei. The conditions noted are these: for concentration effects on growth of B. pseudomallei over time: 1 mM to 31.25 μM, FIGS. 3-10, strains 1026b and 340.
In experiment [2] the test system is Burkholderia. Nature of the experiment: microbe, parasite or virus in culture. The conditions noted are these: read-out: inhibition against Burkholderia.
The mark [3] stands for this setting: relative to DMSO control, 0.00 = growth with inhibitor equal to or greater than DMSO control.

Chain of IspF (Q3JRA0 whole entry, looked up): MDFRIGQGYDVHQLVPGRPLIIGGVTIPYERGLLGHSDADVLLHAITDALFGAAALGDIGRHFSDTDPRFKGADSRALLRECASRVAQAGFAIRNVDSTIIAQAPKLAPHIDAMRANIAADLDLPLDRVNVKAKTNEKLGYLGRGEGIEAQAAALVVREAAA

Take `O=C([O-])c1cnc(Nc2ccc3cn[nH]c3c2)nc1[O-].[Na+].[Na+]` [HGN-0045, Sodium 2-((1H-indazol-6-yl)amino)-4-oxoidopyrimidine-5-carboxylate]: on IspF (pH 7.4), the Kd (commonly the free concentration of one partner at which half of the binding sites on the other are occupied at equilibrium, for simple one-to-one binding) is given as “non specific”. The “% Growth Inhibition Endpoint (24 h)” value in the experiment on Burkholderia [1] (setting [3]) is listed as 0.00^b %.

With `CCOC(=O)c1cnc(Nc2ccc3cn[nH]c3c2)[nH]c1=O` [HGN-0040, Ethyl 2-((1H-indazol-6-yl)amino)-6-oxo-1,6-dihydropyrimidine-5-carboxylate], the Kd entry on IspF (pH 7.4) is “no binding”. Besides, the “% Growth Inhibition Endpoint (24 h)” value in the experiment on Burkholderia [1] (setting [3]) was determined as 16.39 ± 6.29%.

As to `CCOC(=O)c1cnc(Nc2ccc(N3CCOCC3)cc2)[nH]c1=O` [HGN-0037], the Kd entry at IspF (pH 7.4) is “not soluble”. Besides, in the experiment with Burkholderia [1] (cells printing symbol L), the “% Growth Inhibition Endpoint (24 h)” value is listed as “L^c”.

With `CCOC(=O)c1cnc(NCCc2ccc(Cl)cc2)[nH]c1=O` [HGN-0038, Ethyl 2-((4-chlorophenethyl)amino)-6-oxo-1,6-dihydropyrimidine-5-carboxylate], the dissociation constant (Kd) result at IspF (pH 7.4) is on record as “not soluble”. The “% Growth Inhibition Endpoint (24 h)” value with Burkholderia [1] (setting [3]) was 0.00^b %.

As to `CCOC(=O)c1cnc(Nc2ccc3[nH]ncc3c2)[nH]c1=O` [HGN-0042, Ethyl 2-((1H-indazol-5-yl)amino)-6-oxo-1,6-dihydropyrimidine-5-carboxylate], the Kd entry at IspF (pH 7.4) was “not soluble”. Moreover, the “% Growth Inhibition Endpoint (24 h)” value in the experiment with Burkholderia [1] (setting [3]) turned out to be 20.70 ± 0.71%.

As to `Oc1ccc(-c2cncn2CCc2ccc(Cl)cc2)cc1` [HGN-0051], in the experiment with Burkholderia [1] (setting [3]), the “% Growth Inhibition Endpoint (24 h)” value was 0.00^b %. For the same molecule, the “antimalarial potency in initial tests” value in the experiment with Plasmodium falciparum was “potent”.

Molecule `O=C([O-])c1cnc(NCCc2ccc(Cl)cc2)nc1[O-].[Na+].[Na+]` [HGN-0028] gave a Kd on IspF of 305 µM. Further, the “% Growth Inhibition Growth Curve” value with Burkholderia [1] (setting [3]) came to 68.20 ± 2.12%. Besides, in the experiment with B. pseudomallei, the “concentration effects on growth of B. pseudomallei over time” value was “dose dependent”. The “growth of B. pseudomallei over time” value in the experiment with B. pseudomallei (FIG. 2) was “inhibited the growth”. Moreover, the “B. pseudomallei growth inhibition at lower concentrations” value with B. pseudomallei (lower concentrations) is recorded as “did not inhibit”.

In the case of `O=C(O)c1cnc(Nc2ccc(-c3ccccc3)cc2)[nH]c1=O` [HGN-0035, 2-((1,1′-biphenyl)-4-ylamino)-6-oxo-1,6-dihydropyrimidine-5-carboxylic acid], at IspF (pH 7.4), the Kd result is “not soluble”. For the same molecule, the “% Growth Inhibition Endpoint (24 h)” value in the experiment with Burkholderia [1] (setting [3]) was 91.14 ± 1.18%.

Consider `O=C(O)c1cnc(NCCc2ccc(Cl)cc2Cl)nc1O` [HGN-0118], for which the inhibition (in general, the relative decrease from the control value, in per cent) at 1000 µM in the experiment on Burkholderia [2] turned out to be 94.5%.

For `Nc1ccn([C@@H]2O[C@H](CNC(=O)c3ccncc3)[C@@H](O)[C@H]2O)c(=O)n1` [HGN-0005], at IspF, binding was put at a Kd of 176 µM. In addition, in the experiment with Burkholderia [1] (setting [3]), the “% Growth Inhibition Growth Curve” value is listed as 0.00^b %.

As for `CCOC(=O)c1cnc(Nc2ccc(CC(=O)O)cc2)[nH]c1=O` [HGN-0041, 2-(4-((5-(ethoxycaronyl)-6-oxo-1,6-dihydropyrimidin-2-yl)amino)phenyl)acetic acid], the Kd result at IspF (pH 7.4) is reported as “not soluble”. Moreover, in the experiment on Burkholderia [1] (setting [3]), the “% Growth Inhibition Endpoint (24 h)” value is listed as 0.00^b %.

On to `CCOC(=O)c1cnc(Nc2cccc(-c3ccccc3)c2)[nH]c1=O` [HGN-0039], for which, at IspF (pH 7.4), the Kd result is on record as “non specific”. Also, the “% Growth Inhibition Endpoint (24 h)” value in the experiment on Burkholderia [1] (setting [3]) was 0.00^b %.

In the case of `Oc1ccc(-c2cncn2CCc2c[nH]c3ccccc23)cc1` [HGN-0020], the affinity at IspF, expressed as Kd, was 204 µM. In the experiment on Burkholderia [1] (setting [3]), the “% Growth Inhibition Growth Curve” value was found to be 1.26 ± 2.33%.

`Oc1ccc(-n2ccnc2)cc1` [HGN-0029]: in the experiment with Burkholderia [1] (setting [3]), the “% Growth Inhibition Growth Curve” value was 23.58 ± 0.54%. For the same molecule, the “concentration effects on growth of B. pseudomallei over time” value with B. pseudomallei was “did not inhibit the growth”.

As to `O=C([O-])c1cnc(NCc2ccco2)nc1[O-].[Na+].[Na+]` [HGN-0049], the “% Growth Inhibition Endpoint (24 h)” value with Burkholderia [1] (setting [3]) stood at 12.25 ± 0.40%. In addition, the “antimalarial potency in initial tests” value in the experiment on Plasmodium falciparum is “submicromolar”.

For `O=C([O-])c1cnc(Nc2ccc(-c3ccncc3)cc2)nc1[O-].[Na+].[Na+]` [HGN-0013], on IspF (pH 7.4), the Kd entry is on record as “non-specific”. Also, the “% Growth Inhibition Growth Curve” value in the experiment with Burkholderia [1] (setting [3]) was 6.26 ± 1.00%.
